According to patent US8420686B2, “Linked diimidazole antivirals” (Enanta Pharmaceuticals, Inc., priority 2009, dated 2013):

test system: HCV 1b genotype replicon; test: HCV genotype-1b replicon assay (qRT-PCR or luciferase); type: cell-based; details: Hepatitis C virus; HCV 1b replicon cell lines (SGR 11-7 or Huh-luc/neo-ET); qRT-PCR or luciferase readout; read-out: Genotype-1b replicon EC50 Range
Source text: HCV replicon cell lines (kindly provided by R. Bartenschlager) isolated from colonies as described by Lohman et al. (Lohman et al. (1999) Science 285: 110-113, expressly incorporated by reference in its entirety) and used for all experiments. The HCV replicon has the nucleic acid sequence set forth in EMBL Accession No.: AJ242651, the coding sequence of which is from nucleotides 1801 to 8406.
The coding sequence of the published HCV replicon was synthesized and subsequently assembled in a modified plasmid pBR322 (Promega, Madison, Wis.) using standard molecular biology techniques. One replicon cell line (“SGR 11-7”) stably expresses HCV replicon RNA which consists of (i) the HCV 5′UTR fused to the first 12 amino acids of the capsid protein, (ii) the neomycin phosphotransferase gene (neo), (iii) the IRES from encephalomyocarditis virus (EMCV), and (iv) HCV NS2 to NS5B genes and the HCV 3′UTR. […]
EC50 values of single agent compounds and combinations were determined by HCV RNA detection using quantitative RT-PCR, according to the manufacturer's instructions, with a TaqMan® One-Step RT-PCR Master Mix Reagents Kit (Cat#AB 4309169, Applied Biosystems) on an ABI Model 7500 thermocycler. The TaqMan primers used for detecting and quantifying HCV RNA were obtained from Integrated DNA Technologies. HCV RNA was normalized to GAPDH RNA levels in drug-treated cells, which is detected and quantified using the Human GAPDH Endogenous Control Mix (Applied Biosystems, AB 4310884E). […] Chemical agent cytotoxicity is evaluated using an MTS assay according to the manufacturer's directions (Promega). […]

SMILES	EC50
CN(C)C(C(=O)N1CCC[C@H]1c1ncc(-c2ccc3cc4cc(-c5cnc([C@@H]6CCCN6C(=O)[C@@H](c6ccccc6)N(C)C)[nH]5)ccc4cc3c2)[nH]1)c1ccccc1 (stereo partly drawn) [Example 1-b]	< 1 nM
CN(C)[C@@H](C(=O)N1CCC[C@H]1c1ncc(-c2ccc(Oc3cccc(-c4cnc([C@@H]5CCCN5C(=O)[C@@H](c5ccccc5)N(C)C)[nH]4)c3)cc2)[nH]1)c1ccccc1 [Example 1-f]	< 1 nM
CN(C)[C@@H](C(=O)N1CCC[C@H]1c1ncc(-c2ccc3c(c2)Cc2cc(-c4cnc([C@@H]5CCCN5C(=O)[C@@H](c5ccccc5)N(C)C)[nH]4)ccc2-3)[nH]1)c1ccccc1 [Example 2]	< 1 nM
